According to PMC9915759, “Structural Basis for Self-Discrimination by Neoantigen-Specific TCRs” (Research Square, 2023):
Like-named read-outs stand apart in the source and are kept apart here.

System: TCR 47BE7
Experiment: IFNγ intracellular cytokine staining of tgTCR 47BE7 CD8^+ T cells stimulated with peptide
Format: cell-based, mouse
Conditions: for EC50: tgTCR 47BE7 CD8^+ T cells, titrated peptide and αCD28, 6 hours, ICS
Protocol: Fig. 2 | Neoantigen-reactive CD8^+ T cells recognise cognate peptide in vitro and in vivo. a, Table detailing attributes of tumour-reactive T cell receptors (TCRs), including neoantigen-reactive (top) and tumour-associated antigen-reactive (TAA-reactive) (bottom) TCRs isolated upon vaccination. b, Neoantigen-reactive CD8^+ T cell responses were induced by vaccination; isolated tetramer^+ T cells were stimulated for 6 hours with (varying concentrations of) cognate peptide and αCD28 and subsequently analyzed via intracellular staining (ICS) flow cytometry for IFNγ expression. c, Transgenic (tg)TCR CD8^+ T cells were co-incubated with varying concentrations of cognate mutant (MT) peptide or wild type (WT) peptide (x-axis) and αCD28 for 6 hours; intracellular staining (ICS) was performed subsequently. Percentage of T cells expressing IFNγ of a parent CD3^+CD8^+ population is shown on y-axis, normalised to maximum IFNγ expression. MT peptide values are shown as clear circles, and WT as filled, black circles. […] TgTCR CD8^+ T cells expressing the indicated TCR were stimulated, as described in c, with titrated mutant (MT) or wild-type (WT) peptide and IFNγ production was measured by ICS. […] Cytokine production was measured by intracellular staining (ICS) flow cytometry (n=3/condition). […] Heatmap shown summarises the frequency of CD8^+tgTCR^+IFγ^+. f, C57BL/6 mice (n=16–26/group) were treated with Hsf2 neoantigen vaccine or PBS (mock) in accordance with timeline shown (top). tumour growth was monitored via external caliper measurement and plotted versus time since tumour inoculation (bottom). g, Tetramer staining on CD3^+ CD8^+ T cells isolated from tumour-infiltrating lymphocytes (TIL) or peripheral blood mononuclear cells (PBMCs) from mice vaccinated with each of the neoantigens listed, using same methodology as described in b. h, Schematic describing administration of ACT in vivo. […]
Fig. 4 | Structure of the pMHC-TCR ternary complex. a, Kinetics of TCR-47BE7 binding to immobilised H2-D^b/Hsf2 p.K72N as determined by biolayer interferometry. […]

EC50 (n=3, read-out: functional avidity, half-maximal IFNγ production (EC50)) [µM]	EC50 (95%CI NR, read-out: half-maximal IFNγ production (EC50)) [µM]	SMILES	cytokine production on a per-cell basis at saturating peptide concentrations (MT versus WT peptide)
5.61e-06	–	CC[C@H](C)[C@H](NC(=O)[C@H](Cc1c[nH]cn1)NC(=O)[C@@H](NC(=O)[C@@H](NC(=O)[C@H](CC(N)=O)NC(=O)[C@H](CCCNC(=N)N)NC(=O)[C@H](Cc1ccccc1)NC(=O)CNC(=O)[C@@H](N)Cc1ccc(O)cc1)C(C)C)C(C)C)C(=O)O [Hsf2 p.K72N68–76]	–
–	8.7	CC[C@H](C)[C@H](NC(=O)[C@H](Cc1c[nH]cn1)NC(=O)[C@@H](NC(=O)[C@@H](NC(=O)[C@H](CCCCN)NC(=O)[C@H](CCCNC(=N)N)NC(=O)[C@H](Cc1ccccc1)NC(=O)CNC(=O)[C@@H](N)Cc1ccc(O)cc1)C(C)C)C(C)C)C(=O)O [Hsf2_68–76]	partial agonist only
